Assay results as given in article PMC7864192 (Cancers, 2021).
Like-named read-outs stand apart in the source and are kept apart here.

Columns and labels:
[1] = tested on: GCPA007 T2.IV patient-derived AGCT cell line; assay: Cell viability drug screen (Cell Titer Glo 2.0, 72 h), mono- and combination therapy, GCPA007T2.IV; settings: for IC50: Homo sapiens, read-out: IC50 in monotherapy
Procedure: (§1) Cell lines were seeded at a density of 500 cells/well in 40 uL in 384-well plates (Corning, NY, USA) with the Multidrop™ cell dispenser (Thermo Fischer Scientific, Waltham, MA, USA) and sealed with Breathe-Easy® membrane (Sigma-Aldrich, St. Louis, MO, USA) to prevent evaporation. […] For each cell line, three biological repeats and two technical repeats each were performed in order to ensure the validity of the drug screens. […] Subsequently, 11 drugs and 12 drug combinations were dispensed and all wells (excluding blanks and non-DMSO control wells) were normalized to 1% DMSO using the HP Tecan D300e Digital Dispenser (Hewlett-Packard, Palo Alto, CA, USA). […] Next, the plates were covered with the Breathe-Easy membrane and incubated. After 72 h, the Multidrop dispensed 15 uL per well of Cell Titer Glo 2.0 (Thermo Fischer Scientific, Waltham, MA, USA) and plates were incubated in the dark for 10 min. After incubation, luminescence excitation was assessed in the Spectramax reader (Molecular Devices, San Jose, CA, USA) (top read, luminescence excitation at 500 nm) and raw data were processed in Microsoft Excel to subtract background luminescence. The Z-factor, a mathematical method used to quantify the quality of a drug screen based on the calculation of the separation band between the values of the positive and negative controls, was utilized to assess the quality of drug screens [54]. Screens with a Z-factor value of >0.5 were used for further analysis.
(§2) Overall cell survival (in %) was plotted against the drug concentration range of each drug (in log10[μM]) using GraphPad Prism 8.3.1. Values that exceeded 100% survival (within +20% biological deviation) were normalized to 100% survival. Similarly, values below 0% cell survival (within −20% biological deviation) were normalized to 0% survival. Values exceeding this deviation were excluded. Dose–response curves were obtained using the model “log(inhibitor) vs. variable slope (normalized response)” to fit the dose–response curves and R^2 values were used to indicate how well the model fit the data (Supplementary Materials Figures S4 and S5). […] The IC50 values were calculated based on the Chou–Talalay method using Compusyn software [55]. For anti-hormonal treatment, mostly provided as maintenance therapy, we used IC10 values in addition to the IC50.
(§3) In addition to the 11 monotherapies, 12 drug combinations were tested (Table 3) simultaneously with the individual drug treatments in the same 384-well plate. […] Synergy was evaluated using the mass action law, a systematic analysis assessing dose–response dynamics in a cost-effective manner [56, 57]. The combination index (CI) was used to indicate antagonistic (CI > 1) additive (CI = 1) and synergistic (CI < 1) effects [55].

[2] = tested on: GCPA108 T3.IV patient-derived AGCT cell line; assay: Cell viability drug screen (Cell Titer Glo 2.0, 72 h), mono- and combination therapy, GCPA108T3.IV; settings: for IC50: Homo sapiens, read-out: IC50 in monotherapy
Procedure: (§4) Cell lines were seeded at a density of 500 cells/well in 40 uL in 384-well plates (Corning, NY, USA) with the Multidrop™ cell dispenser (Thermo Fischer Scientific, Waltham, MA, USA) and sealed with Breathe-Easy® membrane (Sigma-Aldrich, St. Louis, MO, USA) to prevent evaporation. The SVOG-3e line was seeded at 1000 cells/well due to contact-dependent growth requirements. For each cell line, three biological repeats and two technical repeats each were performed in order to ensure the validity of the drug screens. […] Subsequently, 11 drugs and 12 drug combinations were dispensed and all wells (excluding blanks and non-DMSO control wells) were normalized to 1% DMSO using the HP Tecan D300e Digital Dispenser (Hewlett-Packard, Palo Alto, CA, USA). All drugs were applied in linear concentration ranges (Table 2), including 16 data points to enable combination drug testing at constant ratios (Table 3). Next, the plates were covered with the Breathe-Easy membrane and incubated. After 72 h, the Multidrop dispensed 15 uL per well of Cell Titer Glo 2.0 (Thermo Fischer Scientific, Waltham, MA, USA) and plates were incubated in the dark for 10 min. After incubation, luminescence excitation was assessed in the Spectramax reader (Molecular Devices, San Jose, CA, USA) (top read, luminescence excitation at 500 nm) and raw data were processed in Microsoft Excel to subtract background luminescence. The Z-factor, a mathematical method used to quantify the quality of a drug screen based on the calculation of the separation band between the values of the positive and negative controls, was utilized to assess the quality of drug screens [54]. Screens with a Z-factor value of >0.5 were used for further analysis.
(§5) Overall cell survival (in %) was plotted against the drug concentration range of each drug (in log10[μM]) using GraphPad Prism 8.3.1. Values that exceeded 100% survival (within +20% biological deviation) were normalized to 100% survival. Similarly, values below 0% cell survival (within −20% biological deviation) were normalized to 0% survival. Values exceeding this deviation were excluded. Dose–response curves were obtained using the model “log(inhibitor) vs. variable slope (normalized response)” to fit the dose–response curves and R^2 values were used to indicate how well the model fit the data (Supplementary Materials Figures S4 and S5). […] The maximum plasma concentration (Cmax) and the plasma concentration at steady state (Css) were used as toxicity thresholds. The Cmax was utilized for drugs in which short, high-dosage time courses are required, while the Css was used for maintenance therapy regimes such as anti-hormonal treatment. […] The IC50 values were calculated based on the Chou–Talalay method using Compusyn software [55]. For anti-hormonal treatment, mostly provided as maintenance therapy, we used IC10 values in addition to the IC50.
as §3

[3] = tested on: GCPA113 T1.I patient-derived AGCT cell line; assay: Cell viability drug screen (Cell Titer Glo 2.0, 72 h), mono- and combination therapy, GCPA113T1.I; settings: for IC50: Homo sapiens, read-out: IC50 in monotherapy
Procedure: as §1, §2, §3

[4] = tested on: GCPA113 T1.II patient-derived AGCT cell line; assay: Cell viability drug screen (Cell Titer Glo 2.0, 72 h), mono- and combination therapy, GCPA113T1.II; settings: for IC50: Homo sapiens, read-out: IC50 in monotherapy
[5] = tested on: GCPA007 T2.I patient-derived AGCT cell line; assay: Cell viability drug screen (Cell Titer Glo 2.0, 72 h), mono- and combination therapy, GCPA007T2.I; settings: for IC50: Homo sapiens, 72 h, read-out: IC50 in monotherapy
[6] = tested on: KGN cells (AGCT cell line); assay: Cell viability drug screen (Cell Titer Glo 2.0, 72 h), mono- and combination therapy, KGN; settings: for IC50: Homo sapiens, read-out: IC50 in monotherapy
[7] = tested on: GCPA113 T1.III patient-derived AGCT cell line; assay: Cell viability drug screen (Cell Titer Glo 2.0, 72 h), mono- and combination therapy, GCPA113T1.III; settings: for IC50: Homo sapiens, read-out: IC50 in monotherapy
Procedure: as §1, §2, §3

[8] = cited from earlier work; for Cmax: read-out: Cmax/Css plasma
AGCT cell lines = assay: Cell viability drug screen (72 h), summary over AGCT cell lines (12 patient-derived, with or without KGN); assay type: cell-based, human; settings: everolimus with chemotherapy; 13 cell lines
Procedure: as §4, §5, §3

[9] = tested on: GCPA096 T1.I patient-derived AGCT cell line; assay: Cell viability drug screen (Cell Titer Glo 2.0, 72 h), mono- and combination therapy, GCPA096T1.I; settings: for IC50: Homo sapiens, read-out: IC50 in monotherapy
[10] = tested on: GCPA096 T1.XVI patient-derived AGCT cell line; assay: Cell viability drug screen (Cell Titer Glo 2.0, 72 h), mono- and combination therapy, GCPA096T1.XVI; settings: for IC50: Homo sapiens, read-out: IC50 in monotherapy
[11] = tested on: aromatase inhibitor resistant metastatic breast cancer; settings: everolimus added to tamoxifen; postmenopausal women; cited from earlier work
[12] = tested on: GCPA096 T1.XV patient-derived AGCT cell line; assay: Cell viability drug screen (Cell Titer Glo 2.0, 72 h), mono- and combination therapy, GCPA096T1.XV; settings: for IC50: Homo sapiens, 72 h, read-out: IC50 in monotherapy
Procedure: as §4, §5, §3

[13] = tested on: GCPA096 T1.V patient-derived AGCT cell line; assay: Cell viability drug screen (Cell Titer Glo 2.0, 72 h), mono- and combination therapy, GCPA096T1.V; settings: for IC50: Homo sapiens, 72 h, read-out: IC50 in monotherapy
[14] = tested on: GCPA096 T1.II patient-derived AGCT cell line; assay: Cell viability drug screen (Cell Titer Glo 2.0, 72 h), mono- and combination therapy, GCPA096T1.II; settings: for IC50: Homo sapiens, 72 h, read-out: IC50 in monotherapy
Procedure: (§6) Cell lines were seeded at a density of 500 cells/well in 40 uL in 384-well plates (Corning, NY, USA) with the Multidrop™ cell dispenser (Thermo Fischer Scientific, Waltham, MA, USA) and sealed with Breathe-Easy® membrane (Sigma-Aldrich, St. Louis, MO, USA) to prevent evaporation. The SVOG-3e line was seeded at 1000 cells/well due to contact-dependent growth requirements. For each cell line, three biological repeats and two technical repeats each were performed in order to ensure the validity of the drug screens. […] Subsequently, 11 drugs and 12 drug combinations were dispensed and all wells (excluding blanks and non-DMSO control wells) were normalized to 1% DMSO using the HP Tecan D300e Digital Dispenser (Hewlett-Packard, Palo Alto, CA, USA). All drugs were applied in linear concentration ranges (Table 2), including 16 data points to enable combination drug testing at constant ratios (Table 3). Next, the plates were covered with the Breathe-Easy membrane and incubated. After 72 h, the Multidrop dispensed 15 uL per well of Cell Titer Glo 2.0 (Thermo Fischer Scientific, Waltham, MA, USA) and plates were incubated in the dark for 10 min. After incubation, luminescence excitation was assessed in the Spectramax reader (Molecular Devices, San Jose, CA, USA) (top read, luminescence excitation at 500 nm) and raw data were processed in Microsoft Excel to subtract background luminescence. […] Screens with a Z-factor value of >0.5 were used for further analysis.
as §5, §3

[15] = tested on: GCPA028 T1.II patient-derived AGCT cell line; assay: Cell viability drug screen (Cell Titer Glo 2.0, 72 h), mono- and combination therapy, GCPA028; settings: for IC50: Homo sapiens, read-out: IC50 in monotherapy
Procedure: as §6, §5, §3

[16] = human plasma maximum/steady state concentration, ref phase I/II clinical trials

CO[C@H]1C[C@@H]2CC[C@@H](C)[C@@](O)(O2)C(=O)C(=O)N2CCCC[C@H]2C(=O)O[C@H]([C@H](C)C[C@@H]2CC[C@@H](OCCO)[C@H](OC)C2)CC(=O)[C@H](C)/C=C(\C)[C@@H](O)[C@@H](OC)C(=O)[C@H](C)C[C@H](C)/C=C/C=C/C=C/1C [Everolimus]
DRI (Fa=0,5) ([1]; GCPA007T2IV, in combination Everolimus+Alpelisib): 1.9 | IC50 ([1]; 72 h): > 50 µM | IC50 [1]: > 50 µM | DRI (Fa=0,5) ([2]; GCPA108T3IV, in Everolimus+Alpelisib): 76.7983 | IC50 ([2]; 72 h): > 50 µM | IC50 [2]: > 50 µM | DRI (Fa=0,5) ([3]; GCPA113T1I, in Everolimus+Alpelisib): 20.32 | IC50 ([3]; 72 h): > 50 µM | IC50 [3]: > 50 µM | DRI (Fa=0,5) ([4]; GCPA113T1II, drug within Everolimus+Alpelisib): 11.87 | IC50 ([4]; 72 h): > 50 µM | IC50 [4]: > 50 µM | IC50 [5]: 27.8 µM | DRI (Fa=0,5) ([5]; in Everolimus+Alpelisib (1:2), GCPA007T2I): 3.15 | IC50 ([6]; 72 h): 45.2 µM | IC50 [6]: 45.2 µM | DRI (Fa=0,5) ([6]; drug within Everolimus+Alpelisib): 5.131 | DRI (Fa=0,5) ([7]; GCPA113T1III, drug within Everolimus+Alpelisib): 23.74 | IC50 ([7]; 72 h): > 50 µM | IC50 [7]: > 50 µM | Cmax/Css plasma (Log 10) ([8]; human maximum or steady state plasma concentration, log10 of the uM value): -1.19 Log 10 | Cmax/Css plasma (Log 10) ([8]; human plasma Cmax/Css, log10 of uM value, from phase I/II clinical trials): -1.19 Log 10 | Cmax/Css plasma (Log 10) [8, 16]: -1.19 Log 10 | Cmax/Css plasma (Log 10) ([8]; human plasma, maximum or steady state concentration, log10 of uM value): -1.19 | Cmax/Css plasma (Log 10) ([8]; human plasma, log10 of uM, phase I/II trials): -1.19 | Cmax ([8]; human maximum or steady state plasma concentration): 64.6 nM | Cmax ([8]; human plasma Cmax/Css, from phase I/II clinical trials): 64.6 nM | Cmax [8, 16]: 64.6 nM | Cmax ([8]; human plasma, maximum or steady state concentration): 64.6 nM | Cmax ([8]; human plasma, phase I/II trials): 64.6 nM | cell lines with some degree of synergy (AGCT cell lines): 9 of the 13 | DRI (Fa=0,5) ([9]; GCPA096T1I, in combination Everolimus+Alpelisib): 6.9 | IC50 ([9]; 72 h): 32.7 µM | IC50 [9]: 32.7 µM | DRI (Fa=0,5) ([10]; GCPA096T1XVI, in Everolimus+Alpelisib): 4.73 | IC50 ([10]; 72 h): 32.8 µM | IC50 [10]: 32.8 µM | increase of time to progression [11]: 4.1 months | reduction of death risk [11]: 55% | DRI (Fa=0,5) ([12]; GCPA096T1XV, drug within Everolimus+Alpelisib): 16.55 | IC50 [12]: > 50 µM | DRI (Fa=0,5) ([13]; GCPA096T1V, drug within Everolimus+Alpelisib): 12.7 | IC50 [13]: > 50 µM | DRI (Fa=0,5) ([14]; GCPA096T1II, drug within Everolimus+Alpelisib): 13.23 | IC50 [14]: > 50 µM | DRI (Fa=0,5) ([15]; GCPA028, in combination Everolimus+Alpelisib): 2.64 | IC50 ([15]; 72 h): 30.3 µM | IC50 [15]: 30.3 µM

C[C@]12CC[C@@H]3c4ccc(O)cc4C[C@@H](CCCCCCCCC[S+]([O-])CCCC(F)(F)C(F)(F)F)[C@H]3[C@@H]1CC[C@@H]2O (stereo partly drawn) [Fulvestrant]
IC50 ([1]; 72 h): > 100 µM | IC50 ([3]; 72 h): > 100 µM | IC50 in monotherapy ([4]; GCPA113T1II, monotherapy): Infinit | IC50 [5]: > 100 µM | IC50 ([6]; 72 h): > 100 µM | IC50 ([7]; 72 h): > 100 µM | IC50 ([9]; 72 h): > 100 µM | IC50 ([10]; 72 h): > 100 µM | IC50 [12]: > 100 µM | IC50 [13]: > 100 µM | IC50 [14]: > 100 µM | IC50 ([15]; 72 h): 33.3 µM
